Values after ≈ are worked out from the molar mass of the structure shown. Counter-ions that a name gives are not always drawn. Like-named read-outs stand apart in the source and are kept apart here. Square brackets hold non-standard residues; d marks the D form. Peptide text beside a SMILES is read from it. Gly(N(CH2)2(3-indolyl)) = O=C(O)CNCCc1c[nH]c2ccccc12; Nspe = C[C@H](NCC(=O)O)c1ccccc1; Nlys = NCCCCNCC(=O)O
Experiments:
[1] = test system: S. aureus ATCC 25923; assay type: cell-based, Staphylococcus aureus
Description: (§1) The antibacterial activity of the peptoids was evaluated against gram‐positive (Staphylococcus aureus, ATCC 25 923) and gram‐negative (Escherichia coli, ATCC 25 922) bacteria. […] The MIC of each peptoid was determined using a broth dilution assay. For each assay, the primary culture of either S. aureus or E. coli was grown overnight in cation‐adjusted Mueller Hinton broth 2 (MHB2) media at 37 °C with shaking. A secondary culture was prepared the next day, grown for 3–4 h, and then diluted in MHB2 media with a final concentration of 0.001% acetic acid and 0.02% bovine serum albumin to obtain a calculated optical density (OD) of 0.001. This corresponded to ≈2–5 × 10^5 colony‐forming units (CFU mL^−1) of bacteria. Using 96‐well polypropylene plates (Eppendorf, Hamburg, Germany), 100 µL of 2–5 × 10^5 CFU mL^−1 bacteria were added in triplicate for each peptoid. Each peptoid was assayed at six different concentrations in two‐fold serial dilutions. The maximum peptoid concentration was 25 µM. […] The MIC value determination was performed in triplicate. The MIC was defined as the lowest peptoid concentration that prevented turbidity during visual inspection.

[2] = test system: E. coli ATCC 25922; assay type: cell-based, Escherichia coli
Description: as §1

[3] = test system: rat erythrocytes; test: Hemolysis assay; assay type: cell-based
In short: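 Washed Sprague-Dawley rat erythrocytes (10% suspension in PBS pH 7.4) mixed with peptoids (0–100 µM), 60 min at 37 °C; supernatant A540 expressed as % of 1% Triton X-100 lysis. HC10/HC50 are concentrations giving 10%/50% hemolysis; Hmax is hemolysis at 100 µM.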

[4] = Analytical reversed-phase HPLC elution (hydrophobicity); assay type: physicochemical; conditions: analytical RP-HPLC, 1 mL/min, UV 220 nm; for HPLC elution: Table S1, SunFire C18, water/ACN + 0.1% TFA, 5 to 100% B linear over 30 min, approximate comparison of hydrophobicity
In short: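 Analytical reversed-phase HPLC on a C18 column (4.6 × 250 mm, 5 μm) at 1 mL/min, water/acetonitrile each with 0.1% TFA. Held at 5% B for 2 min, then linear to 100% B over 30 min and held 5 min, with UV detection at 220 nm; retention time (tR) serves as hydrophobicity measure.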

[5] = Table S2, broth dilution, MHB2, 37 °C 24 h, max 25 µM, mean of triplicate

Row | SMILES | MIC S. aureus ATCC25923 ([1]; ATCC 25923) [µM] | MIC E. coli ATCC25922 ([2]; ATCC 25922) [µM] | Hmax (100 µM) [3] [%] | HC10 ([3]; red cells of rat) [µM] | HC50 ([3]; red cells of rat) [µM] | MIC S. aureus ATCC25923 [1, 5] [µM] | HPLC elution (%ACN) ([4]; Table 1, SunFire C18 […] 250 mm, water/ACN + 0.1% TFA, 5% B 2 min then linear to 100% B over 30 min, used as measure of hydrophobicity) | H max (100 µM) [3] [%] | HC10 ([3]; pH 7.4) [µM] | HC50 ([3]; pH 7.4) [µM] | MIC E. coli ATCC25922 [2, 5] [µM] | HPLC elution [4] [% MeCN]
1 | C[C@@H](c1ccccc1)N(CC(N)=O)C(=O)CN(C(=O)CN(CCCCN)C(=O)CN(C(=O)CN(C(=O)CN(CCCCN)C(=O)CN(C(=O)CN(C(=O)CN(CCCCN)C(=O)CN(CCc1c[nH]c2ccccc12)C(=O)CN(C(=O)CNCCCCN)[C@@H](C)c1ccccc1)[C@@H](C)c1ccccc1)[C@@H](C)c1ccccc1)[C@@H](C)c1ccccc1)[C@@H](C)c1ccccc1)[C@@H](C)c1ccccc1 [10-AcOH] | 1.6 (≈ 2.97 µg/mL) | 6.3 (≈ 11.7 µg/mL) | 102.3±11.3 | 14.1 | 29.4 |  |  |  |  |  |  | 
2 | C[C@@H](c1ccccc1)N(CC(N)=O)C(=O)CN(C(=O)CN(CCCCN)C(=O)CN(C(=O)CN(C(=O)CN(CCCCN)C(=O)CN(C(=O)CN(C(=O)CN(CCCCN)C(=O)CN(CCc1c[nH]c2ccccc12)C(=O)CN(C(=O)CNCCCCN)[C@@H](C)c1ccccc1)[C@@H](C)c1ccccc1)[C@@H](C)c1ccccc1)[C@@H](C)c1ccccc1)[C@@H](C)c1ccccc1)[C@@H](C)c1ccccc1 [10-HCl] | 3.1 | 6.3 | 81.5±7.4 | 15.3 | 37.8 |  |  |  |  |  |  | 
3 | C[C@@H](c1ccccc1)N(CC(=O)N(CCCCN)CC(=O)N(CC(=O)N(CC(=O)N(CCCCN)CC(=O)N(CC(=O)N(CC(=O)N(CCCCN)CC(=O)N(CCc1c[nH]c2ccccc12)CC(=O)N(CCc1c[nH]c2ccccc12)CC(N)=O)[C@@H](C)c1ccccc1)[C@@H](C)c1ccccc1)[C@@H](C)c1ccccc1)[C@@H](C)c1ccccc1)C(=O)CN(C(=O)CNCCCCN)[C@@H](C)c1ccccc1 [11-AcOH] (H-[Nlys][Nspe][Nspe][Nlys][Nspe][Nspe][Nlys][Nspe][Nspe][Nlys][Gly(N(CH2)2(3-indolyl))][Gly(N(CH2)2(3-indolyl))]-NH2) | 1.6 (≈ 3.04 µg/mL) | 3.1 (≈ 5.88 µg/mL) | 110.4±0.2 | 8.7 | 29.7 |  |  |  |  |  |  | 
4 | C[C@@H](c1ccccc1)N(CC(=O)N(CCCCN)CC(=O)N(CC(=O)N(CC(=O)N(CCCCN)CC(=O)N(CC(=O)N(CC(=O)N(CCCCN)CC(=O)N(CCc1c[nH]c2ccccc12)CC(=O)N(CCc1c[nH]c2ccccc12)CC(N)=O)[C@@H](C)c1ccccc1)[C@@H](C)c1ccccc1)[C@@H](C)c1ccccc1)[C@@H](C)c1ccccc1)C(=O)CN(C(=O)CNCCCCN)[C@@H](C)c1ccccc1 [11-HCl] (H-[Nlys][Nspe][Nspe][Nlys][Nspe][Nspe][Nlys][Nspe][Nspe][Nlys][Gly(N(CH2)2(3-indolyl))][Gly(N(CH2)2(3-indolyl))]-NH2) | 3.1 | 3.1 | 113.9±1.7 | 10.1 | 21.5 |  |  |  |  |  |  | 
5 | C[C@@H](c1ccccc1)N(CC(N)=O)C(=O)CN(C(=O)CN(CCCCN)C(=O)CN(C(=O)CN(C(=O)CN(CCCCN)C(=O)CN(C(=O)CN(C(=O)CN(CCCCN)C(=O)CN(CCc1c[nH]c2ccccc12)C(=O)CN(CCc1c[nH]c2ccccc12)C(=O)CNCCCCN)[C@@H](C)c1ccccc1)[C@@H](C)c1ccccc1)[C@@H](C)c1ccccc1)[C@@H](C)c1ccccc1)[C@@H](C)c1ccccc1 [14-AcOH] | 1.6 (≈ 3.04 µg/mL) | 3.1 (≈ 5.88 µg/mL) | 100.7±17.2 | 14.9 | 51.8 |  |  |  |  |  |  | 
6 | C[C@@H](c1ccccc1)N(CC(N)=O)C(=O)CN(C(=O)CN(CCCCN)C(=O)CN(C(=O)CN(C(=O)CN(CCCCN)C(=O)CN(C(=O)CN(C(=O)CN(CCCCN)C(=O)CN(CCc1c[nH]c2ccccc12)C(=O)CN(CCc1c[nH]c2ccccc12)C(=O)CNCCCCN)[C@@H](C)c1ccccc1)[C@@H](C)c1ccccc1)[C@@H](C)c1ccccc1)[C@@H](C)c1ccccc1)[C@@H](C)c1ccccc1 [14-HCl] | 3.1 | 3.1 | 75.3±5.0 | 19.2 | 68.2 |  |  |  |  |  |  | 
7 | CC[C@H](C)[C@H](N)C(=O)N[C@@H](CC(C)C)C(=O)N[C@@H](CCCNC(=N)N)C(=O)N[C@@H](Cc1c[nH]c2ccccc12)C(=O)N1CCC[C@H]1C(=O)N[C@@H](Cc1c[nH]c2ccccc12)C(=O)N[C@@H](Cc1c[nH]c2ccccc12)C(=O)N1CCC[C@H]1C(=O)N[C@@H](Cc1c[nH]c2ccccc12)C(=O)N[C@@H](CCCNC(=N)N)C(=O)N[C@@H](CCCNC(=N)N)C(=O)N[C@@H](CCCCN)C(N)=O [Omiganan, reference compound] (H-ILRWPWWPWRRK-NH2) |  |  | 0 |  |  | 12.5 (≈ 22.2 µg/mL) | 45.7 | 0 | > 100 | > 100 |  | 
8 | C[C@@H](c1ccccc1)N(CC(N)=O)C(=O)CN(C(=O)CN(CCCCN)C(=O)CN(C(=O)CN(C(=O)CN(CCCCN)C(=O)CN(CCc1c[nH]c2ccccc12)C(=O)CN(C(=O)CN(CCCCN)C(=O)CN(C(=O)CN(C(=O)CNCCCCN)[C@@H](C)c1ccccc1)[C@@H](C)c1ccccc1)[C@@H](C)c1ccccc1)[C@@H](C)c1ccccc1)[C@@H](C)c1ccccc1)[C@@H](C)c1ccccc1 [peptoid 9] |  |  | 106.4±0.6 |  |  |  |  |  | 10.6 | 31.9 | 3.1 (≈ 5.76 µg/mL) | 54.6
9 | C[C@@H](c1ccccc1)N(CC(N)=O)C(=O)CN(C(=O)CN(CCCCN)C(=O)CN(C(=O)CN(CCc1c[nH]c2ccccc12)C(=O)CN(CCCCN)C(=O)CN(CCc1c[nH]c2ccccc12)C(=O)CN(C(=O)CN(CCCCN)C(=O)CN(C(=O)CN(C(=O)CNCCCCN)[C@@H](C)c1ccccc1)[C@@H](C)c1ccccc1)[C@@H](C)c1ccccc1)[C@@H](C)c1ccccc1)[C@@H](C)c1ccccc1 [peptoid 15] |  | 3.1 (≈ 5.88 µg/mL) |  | 20.5 | 89.2 |  |  |  | 28.1 | 60.9 |  | 53.7
10 | C[C@H](NCC(=O)N(CCCCN)CC(=O)N(CC(=O)N(CC(=O)N(CCCCN)CC(=O)N(CC(=O)N(CC(=O)N(CCCCN)CC(=O)N(CC(=O)N(CC(=O)N(CCCCN)CC(=O)N(CC(N)=O)[C@@H](C)c1ccccc1)[C@@H](C)c1ccccc1)[C@@H](C)c1ccccc1)[C@@H](C)c1ccccc1)[C@@H](C)c1ccccc1)[C@@H](C)c1ccccc1)[C@@H](C)c1ccccc1)c1ccccc1 [peptoid 48] (H-[Nspe][Nlys][Nspe][Nspe][Nlys][Nspe][Nspe][Nlys][Nspe][Nspe][Nlys][Nspe]-NH2) |  |  | 79.9±3.6 |  |  |  |  |  | 25.7 | 48.4 |  | 53.4
11 | C[C@@H](c1ccccc1)N(CC(=O)N(CCCCN)CC(=O)N(CC(=O)N(CC(=O)N(CCCCN)CC(=O)N(CC(=O)N(CC(=O)N(CCCCN)CC(=O)N(CCCCN)CC(N)=O)[C@@H](C)c1ccccc1)[C@@H](C)c1ccccc1)[C@@H](C)c1ccccc1)[C@@H](C)c1ccccc1)C(=O)CN(C(=O)CNCCCCN)[C@@H](C)c1ccccc1 [peptoid 49] (H-[Nlys][Nspe][Nspe][Nlys][Nspe][Nspe][Nlys][Nspe][Nspe][Nlys][Nlys]-NH2) |  |  | 0.3±0.3 |  |  |  |  |  | > 100 | > 100 |  | 46.6
12 | C[C@@H](c1ccccc1)N(CC(=O)N(CCCCN)CC(=O)N(CC(=O)N(CC(=O)N(CCCCN)CC(=O)N(CC(=O)N(CC(=O)N(CCCCN)CC(=O)N(CC(=O)N(CC(=O)N(CCCCN)CC(=O)N(CCCCN)CC(N)=O)[C@@H](C)c1ccccc1)[C@@H](C)c1ccccc1)[C@@H](C)c1ccccc1)[C@@H](C)c1ccccc1)[C@@H](C)c1ccccc1)[C@@H](C)c1ccccc1)C(=O)CNCCc1c[nH]c2ccccc12 [peptoid 61] (H-[Gly(N(CH2)2(3-indolyl))][Nspe][Nlys][Nspe][Nspe][Nlys][Nspe][Nspe][Nlys][Nspe][Nspe][Nlys][Nlys]-NH2) |  |  | 79.9±0.7 |  |  |  |  |  | 19.3 | 65.4 |  | 51.2
13 | C[C@@H](c1ccccc1)N(CC(N)=O)C(=O)CN(CCCCN)C(=O)CN(C(=O)CN(CCCCN)C(=O)CN(CCCCN)C(=O)CN(C(=O)CN(C(=O)CN(CCCCN)C(=O)CN(C(=O)CN(C(=O)CN(CCCCN)C(=O)CN(C(=O)CNCCc1c[nH]c2ccccc12)[C@@H](C)c1ccccc1)[C@@H](C)c1ccccc1)[C@@H](C)c1ccccc1)[C@@H](C)c1ccccc1)[C@@H](C)c1ccccc1)[C@@H](C)c1ccccc1 [peptoid 62] |  |  | 44.8±8.1 |  |  |  |  |  | 36.2 | > 100 |  | 50.8

— publication PMC10460844, “Real‐Time Monitoring of Multitarget Antimicrobial Mechanisms of Peptoids Using Label‐Free Imaging with Optical Diffraction Tomography” (Advanced Science, 2023)
